What was measured:
Type in all cases: cell-based, human
[1] = tested on: Cells from Nasopharynx Carcinoma Explant; assay: In vitro short-term chemosensitivity assay (MTT); settings: Table 1, 24 h
Experimental: (§1) The effects of L-aC on cells from 4 primitive epidermoid carcinomas of the larynx and 1 primitive undifferentiated carcinoma of the nasopharynx were tested.
(§2) Tissue fragments from the tumour mass were mechanically dissociated in Hank's solutions adding an antibiotic and an antifungal to obtain a cell monosuspension free of agglomerates. The resulting suspension was centrifuged at 1200 rpm for 5 minutes and the pellet was resuspended in MEM culture medium supplemented with 10% of patient serum, to obtain a concentration of 10^5 cells/ml. Subsequently, 180 μl of the resulting suspension were dispensed in microplate wells and incubated under 5% CO2 atmosphere at 37° C. for 3 days. After that, the antitumor medicaments were added in the amount of 20 μl for each well, at a concentration of 0.1×, 1× and 10× the maximum serum concentrations that can usually be reached in clinical practice. 24 h after the beginning of the exposure to the antitumour medicament, 100 μl of MTT were added, and after 4 h, a further 150 μl of dimethylsulfoxide were added.
(§3) The optical density was evaluated by a Uniscan microspectrophotometer with a […] wavelength filter. Cytotoxicity was evaluated as percentage of the optical density of the treated sample compared with the optical density of the control.
(§4) Bleomycin (BLEC), […] (CDDP), 5-fluoruracil (5-FU), vincristine (VCR), epidoxorubicin (Epi-Dx) and methotrexate (MTX) were tested for comparison purposes.
(§5) L-aC was tested at the following concentrations: 0.2-2-20 mg/ml.
(§6) In vitro short-term chemosensitivity assay (according to Hill and coll.)
(§7) (Cell Vitality Percentage After Exposure to the Antitumoral)—Raw Data
(Cells from Nasopharynx Carcinoma Explant)

[2] = tested on: Cells from Larynx Carcinoma Explant; assay: In vitro short-term chemosensitivity assay (MTT)
Experimental: as §1, §2, §3, §4, §5, §6, §7
(Cells from Larynx Carcinoma Explant)

[3] = tested on: cells from 4 primitive epidermoid carcinomas of the larynx and 1 primitive undifferentiated carcinoma of the nasopharynx; assay: In vitro short-term chemosensitivity assay (MTT), all five explants; settings: five explants
Experimental: as §1, §2, §3, §4, §5

[4] = 0.1x maximum clinical serum concentration (L-aC tested at 0.2-2-20 mg/ml)
[5] = 1x maximum clinical serum concentration
[6] = 10x maximum clinical serum concentration

Row | Compound | Cell Vitality Percentage After Exposure [1, 4] [%] | Cell Vitality Percentage After Exposure [1, 5] [%] | Cell Vitality Percentage After Exposure [1, 6] [%] | Cell Vitality Percentage After Exposure ([2]; Table 2 explant, 0.1x) [%] | Cell Vitality Percentage After Exposure ([2]; Table 2 explant, 1x) [%] | Cell Vitality Percentage After Exposure ([2]; Table 2 explant, 10x) [%] | Cell Vitality Percentage After Exposure ([2]; Table 3 explant, 0.1x) [%] | Cell Vitality Percentage After Exposure ([2]; Table 3 explant, 1x) [%] | Cell Vitality Percentage After Exposure ([2]; Table 3 explant, 10x) [%] | Cell Vitality Percentage After Exposure ([2]; Table 4 explant, 0.1x) [%] | Cell Vitality Percentage After Exposure ([2]; Table 4 explant, 1x) [%] | Cell Vitality Percentage After Exposure ([2]; Table 4 explant, 10x) [%] | Cell Vitality Percentage After Exposure ([2]; Table 5 explant, 0.1x) [%] | Cell Vitality Percentage After Exposure ([2]; Table 5 explant, 1x) [%] | Cell Vitality Percentage After Exposure ([2]; Table 5 explant, 10x) [%] | most active medicaments (cases out of 5) [3]
1 | O=c1[nH]cc(F)c(=O)[nH]1 [5-FU, 5-fluoruracil] | 43 | 12 | 5.7 | 53 | 38 | 13 | 52 | 45 | 23 | 40 | 14 | 14 | 55 | 13 | 8.2 | 1/5
2 | N.N.O=C([O-])C1(C(=O)[O-])CCC1.[Pt+2] [CBP, carboplatin] | 7.1 | 7 | 6.5 | 78 | 58 | 34 | 88 | 50 | 21 | – | – | – | 72 | 53 | 45 | –
3 | COc1cccc2c1C(=O)c1c(O)c3c(c(O)c1C2=O)C[C@@](O)(C(=O)CO)C[C@@H]3O[C@H]1C[C@H](N)[C@@H](O)[C@H](C)O1 [Epi-Dx, epidoxorubicin] | 14 | 7.8 | 4.8 | 59 | 21 | 7 | 57 | 32 | 16 | 16 | 8 | 8 | 60 | 21 | 18 | 2/5
4 | CN(Cc1cnc2nc(N)nc(N)c2n1)c1ccc(C(=O)N[C@@H](CCC(=O)O)C(=O)O)cc1 [MTX, methotrexate] | 13.5 | 5 | 3.9 | – | – | – | – | – | – | 18 | 4 | 3.1 | – | – | – | 2/5
5 | CC[C@]1(O)C[C@H]2CN(CCc3c([nH]c4ccccc34)[C@@](C(=O)OC)(c3cc4c(cc3OC)N(C=O)[C@H]3[C@@](O)(C(=O)OC)[C@H](OC(C)=O)[C@]5(CC)C=CCN6CC[C@]43[C@@H]65)C2)C1 [VCR, vincristine] | 7.8 | 4.6 | 3.8 | 70 | 45 | 11 | 32 | 19 | 4.8 | 1.9 | 1.3 | 1.3 | 23 | 4.2 | 2 | 4/5
6 | Bleomycin [BLM] | – | – | – | 55 | 36 | 17 | 81 | 68 | 34 | 82 | 79 | 62 | 60 | 35 | 31 | –

From patent publication US6673839B1, “Pharmaceutical compositions with antitumour activity” (Universita' Degli Studi di Catania, priority 1998, dated 2004)
